Our source for the IC50 and EC50 values is patent US10421761B2, “Compounds for kinase modulation, and indications therefor” (Plexxikon Inc., priority 2013, dated 2019).

What is called IC50 is the point on the concentration scale where inhibition reaches its midpoint. For orientation: EC50 means the concentration that produces a half-maximal response.

For experiment [1], the system named is A375 (BRAF V600E) cell line. Put plainly: A375 P-ERK inhibition assay (AlphaScreen). As to conditions: Homo sapiens, A-375; A375_P-ERK. In kind it is cell-based, human. Summed up: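 Phospho-ERK1/2 (Thr202/Tyr204) detected in lysates by AlphaScreen proximity signal, pairing a total-ERK antibody with a phospho-specific antibody. Before lysis, A375 cells received compound as an 8-point titration for one hour at 37° C.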

Another experiment concerns the target T1, BRAF V600E (Homo sapiens, UniProt P15056, V600E).
T1 construct: purchased Upstate Biotechnology
Put plainly: BRAF V600E biochemical kinase activity assay (AlphaScreen, biotin-MEK1 substrate). As to conditions: BRAF V600E biochemical inhibitory activity. On the technique in general: In Alpha technology, singlet oxygen from a donor bead excites a nearby acceptor bead.

The test system of experiment [2] is IPC-298 (NRAS Q61L) cell line. The experiment is described as follows: IPC-298 P-ERK cell activation assay (AlphaScreen). In kind it is cell-based, human. As to conditions: Homo sapiens; P-ERK cell activation, IPC-298; numeric bounds; read-out: Cell activity (EC50 μM) IPC-298_P-ERK. Summed up: (§1)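 Phospho-ERK1/2 (Thr202/Tyr204) in lysates quantified via AlphaScreen bead proximity, after one-hour, 37° C. exposure of cells to eight compound concentrations. Lines: IPC-298 human melanoma with activated NRAS; B9 mouse squamous carcinoma with activated HRAS.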

In the next experiment the test system is B9 (HRAS Q61L) cell line. Put plainly: B9 P-ERK cell activation assay (AlphaScreen). In kind it is cell-based, mouse. As to conditions: Mus musculus; P-ERK cell activation, B9; numeric bounds; read-out: Cell activity (EC50 μM) B9_pERK. Summed up:
as §1

Structures are written as SMILES. Bounds are passed on as bounds.

T1 sequence (P15056 whole entry V600E): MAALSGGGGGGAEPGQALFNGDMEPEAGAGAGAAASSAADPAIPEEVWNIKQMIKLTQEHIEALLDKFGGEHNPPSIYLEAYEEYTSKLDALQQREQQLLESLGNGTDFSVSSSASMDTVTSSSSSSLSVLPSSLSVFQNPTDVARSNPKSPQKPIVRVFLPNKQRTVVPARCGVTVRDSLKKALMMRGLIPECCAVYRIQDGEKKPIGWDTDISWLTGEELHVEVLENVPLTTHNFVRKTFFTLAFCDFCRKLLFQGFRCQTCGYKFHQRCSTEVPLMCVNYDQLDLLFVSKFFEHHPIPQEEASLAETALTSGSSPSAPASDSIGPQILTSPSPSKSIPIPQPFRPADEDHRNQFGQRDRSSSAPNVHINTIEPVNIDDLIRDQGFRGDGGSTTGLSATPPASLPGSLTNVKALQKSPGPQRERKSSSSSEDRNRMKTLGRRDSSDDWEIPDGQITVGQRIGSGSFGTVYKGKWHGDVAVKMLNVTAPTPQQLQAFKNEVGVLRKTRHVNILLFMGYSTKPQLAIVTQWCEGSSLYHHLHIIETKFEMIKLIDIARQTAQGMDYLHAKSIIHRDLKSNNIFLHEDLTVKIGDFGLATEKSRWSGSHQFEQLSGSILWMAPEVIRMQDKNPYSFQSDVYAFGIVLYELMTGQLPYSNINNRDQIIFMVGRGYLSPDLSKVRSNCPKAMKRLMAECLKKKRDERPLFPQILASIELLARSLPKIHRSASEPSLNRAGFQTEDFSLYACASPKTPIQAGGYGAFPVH

As to `CC(C)(C)c1nc(-c2cccc(NS(=O)(=O)N3CCCC3)c2F)c(Br)s1` [P-2127, N-[3-(5-bromo-2-tert-butyl-thiazol-4-yl)-2-fluoro-phenyl]pyrrolidine-1-sulfonamide], the IC50 in experiment [1] was greater than 10 µM; at BRAF V600E, 0.0001 to 1 µM. Besides, the EC50 (in experiment [2]; in the experiment with B9 (HRAS Q61L) cell line) was greater than 10 µM each time.

For the compound `CCC(C)S(=O)(=O)Nc1cccc(-c2nc(C(C)(C)C)sc2-c2ccnc(N)n2)c1F` (stereo not shown) [P-2106, N-[3-[5-(2-aminopyrimidin-4-yl)-2-tert-butyl-thiazol-4-yl]-2-fluoro-phenyl]butane-2-sulfonamide], the IC50 (in experiment [1]; at BRAF V600E) was 0.0001 to 1 µM throughout. In addition, the concentration for a half-maximal effect (EC50) (in experiment [2]; in the experiment on B9 (HRAS Q61L) cell line) was greater than 10 µM each time.

Consider `CC(C)Nc1ncnc2[nH]cc(C(=O)c3c(F)ccc(NS(=O)(=O)N4CCOCC4)c3F)c12` [P-2044, N-[2,4-difluoro-3-[4-(isopropylamino)-7H-pyrrolo[2,3-d]pyrimidine-5-carbonyl]phenyl]morpholine-4-sulfonamide], for which the half-inhibitory concentration (IC50) (in experiment [1]; against BRAF V600E) was 0.0001 to 1 µM throughout. Further, the 50% effective concentration (EC50) (in experiment [2]; in the experiment with B9 (HRAS Q61L) cell line) was greater than 10 µM in each case.

Turning to `O=C(c1cccc(NS(=O)(=O)N2CCCC2)c1F)c1c[nH]c2ncnc(NC[C@@H]3CCCO3)c12` [P-2082, N-[2-fluoro-3-[4-[[(2S)-tetrahydrofuran-2-yl]methylamino]-7H-pyrrolo[2,3-d]pyrimidine-5-carbonyl]phenyl]pyrrolidine-1-sulfonamide], the IC50 (in experiment [1]; against BRAF V600E) was 0.0001 to 1 µM throughout. The EC50 (in experiment [2]; in the experiment on B9 (HRAS Q61L) cell line) was greater than 10 µM in each case.

As for `COc1ccnc2[nH]cc(C(=O)c3c(F)ccc(NS(=O)(=O)N(C)C)c3F)c12` [Compound P-2002, 3-[3-(dimethylsulfamoylamino)-2,6-difluoro-benzoyl]-4-methoxy-1H-pyrrolo[2,3-b]pyridine], the IC50 (in experiment [1]; against BRAF V600E) was 0.0001 to 1 µM each time. Moreover, the EC50 (in experiment [2]; in the experiment with B9 (HRAS Q61L) cell line) was greater than 10 µM each time.

Take `N#Cc1ccnc2[nH]cc(C(=O)c3c(F)ccc(NS(=O)(=O)N4CCOCC4)c3F)c12` [P-2022, N-[3-(4-cyano-1H-pyrrolo[2,3-b]pyridine-3-carbonyl)-2,4-difluoro-phenyl]morpholine-4-sulfonamide]: the IC50 (in experiment [1]; on BRAF V600E) was 0.0001 to 1 µM throughout. Moreover, the EC50 (in experiment [2]; in the experiment with B9 (HRAS Q61L) cell line) was greater than 10 µM throughout.

In the case of `CCN(C)S(=O)(=O)Nc1cccc(C(=O)c2c[nH]c3ncnc(NC4CC4)c23)c1F` [P-2063, 4-(cyclopropylamino)-5-[3-[[ethyl(methyl)sulfamoyl]amino]-2-fluoro-benzoyl]-7H-pyrrolo[2,3-d]pyrimidine], the half-inhibitory concentration (IC50) (in experiment [1]; against BRAF V600E) was 0.0001 to 1 µM in each case. The concentration giving a half-maximal response (EC50) (in experiment [2]; with B9 (HRAS Q61L) cell line) was greater than 10 µM each time.

Regarding `O=C(c1cc(F)cc(NS(=O)(=O)N2CCCC2)c1F)c1c[nH]c2ncc(-c3cnc(C4CC4)nc3)cc12` [P-2171, N-[3-[5-(2-cyclopropylpyrimidin-5-yl)-1H-pyrrolo[2,3-b]pyridine-3-carbonyl]-2,5-difluoro-phenyl]pyrrolidine-1-sulfonamide], the IC50 (in experiment [1]; on BRAF V600E) was 0.0001 to 1 µM each time. Moreover, the values for the EC50 (in experiment [2]; with B9 (HRAS Q61L) cell line) were greater than 1 µM and greater than 10 µM, respectively.

As to `CCC(C)S(=O)(=O)Nc1ccc(F)c(C(=O)c2c[nH]c3nccc(Cl)c23)c1F` (stereo not shown) [P-2016, N-[3-(4-chloro-1H-pyrrolo[2,3-b]pyridine-3-carbonyl)-2,4-difluoro-phenyl]butane-2-sulfonamide], the half-maximal inhibitory concentration (IC50) (in experiment [1]; on BRAF V600E) was 0.0001 to 1 µM each time. The EC50 (in experiment [2]; with B9 (HRAS Q61L) cell line) was greater than 10 µM each time.

As to `CCOC(=O)CNc1ncnc2[nH]cc(C(=O)c3cccc(NS(=O)(=O)N4CCCC4)c3F)c12` [P-2103, ethyl 2-[[5-[2-fluoro-3-(pyrrolidin-1-ylsulfonylamino)benzoyl]-7H-pyrrolo[2,3-d]pyrimidin-4-yl]amino]acetate], the IC50 (in experiment [1]; against BRAF V600E) was 0.0001 to 1 µM each time. Further, the concentration for a half-maximal effect (EC50) (in experiment [2]; in the experiment on B9 (HRAS Q61L) cell line) was greater than 10 µM each time.
